The source of these data is US7049322B2 (priority 2002, dated 2006).

Data set [1] in a line: Dehydration/desolvation under vacuum, XRPD. Format: physicochemical. From the text:
The characterization of this weight loss as THF solvent is supported by the ^1H NMR data.

The conditions of data set [2]: clinical trials, cited from earlier work.
Data set [3] can be described thus: Moisture sorption/desorption (VTI SGA-100 moisture balance). In kind it is physicochemical. To be noted: for hygroscopicity: 5 to 95% RH. From the text:
The samples were not dried prior to analysis.

Data set [4] can be described thus: XRPD after storage in a closed vial at ambient conditions. In kind it is physicochemical. The conditions noted are these: 31 days. The method, then:
X-ray powder diffraction analyses were carried out on a Shimadzu XRD-6000 X-ray powder diffractometer using Cu Kα radiation having a wavelength of 1.5406 Å. The instrument is equipped with a fine-focus X-ray tube. The tube power was set by setting potential difference at 40 kV, and current 40 mA. The divergence and scattering slits were set at 1° and the receiving slit was set at 0.15 mm. Diffracted radiation was detected by a NaI scintillation detector. A theta-two theta continuous scan at 3°/min (0.4 sec/0.02° step) from 2.5 to 40 °2θ was performed. A silicon standard was analyzed each day to check the instrument alignment. Each sample was analyzed in a quartz sample holder. A variable temperature (VT-XRPD) experiment was performed on one form. The sample was prepared for analysis by pressing it into a variable temperature holder. A powder pattern was collected initially at 35° C. and again, after heating, at 200° C.

Structures are written as SMILES.

Take `CC[C@@]1(O)C(=O)OCc2c1cc1n(c2=O)Cc2cc3c([N+](=O)[O-])cccc3nc2-1` [Form C, 9-nitrocamptothecin]: the “form after attempted desolvation” value in data set [1] is listed as “becomes amorphous”.
Turning to `CC[C@@](O)(C(=O)[O-])c1cc2n(c(=O)c1CO)Cc1cc3ccccc3nc1-2.[Na+]` [Sodium camptothecin], the side effects entry in data set [2] (administered intravenously) is “unpredictable side effects such as myelosuppression and hemorrhagic cystitis”. The antineoplastic activity entry in data set [2] (early 1970's) is “found to have antineoplastic activity”.
`CC[C@@]1(O)C(=O)OCc2c1cc1n(c2=O)Cc2cc3c([N+](=O)[O-])cccc3nc2-1` [Form B, 9-nitrocamptothecin]: in data set [3] (5% RH), the “water lost upon equilibration at 5% RH” value is given as 0.98%. Moreover, the hygroscopicity result in data set [3] was “relatively hygroscopic”. Further, in data set [4], the “stability of the crystalline polymorph (XRPD pattern unchanged)” value is “relatively stable”.
Take `CC[C@@]1(O)C(=O)OCc2c1cc1n(c2=O)Cc2cc3c([N+](=O)[O-])cccc3nc2-1` [Form A, 9-nitrocamptothecin]: in data set [3] (5% RH), the “water gained upon equilibration to 5% RH” value was 0.01%. Moreover, the hygroscopicity entry in data set [3] is listed as “not hygroscopic”.
